In PubChem BioAssay (NCI):
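Cells were grown in 96-well plates and exposed to each compound for 48 hours at five concentrations; endpoints were interpolated linearly between bracketing concentrations, or set to the highest concentration if not reached. At the TGI there is no net growth.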

Assays:
Test in all cases: growth of human tumour cells (NCI), 48 h
[1] = test system: TK-10 renal
[2] = test system: NCI-H23 lung
[3] = test system: MDA-N
[4] = test system: NCI-H226 lung
[5] = test system: PC-3 prostate
[6] = test system: IGROV1 ovarian
[7] = test system: SF-295 CNS
[8] = test system: T-47D breast
[9] = test system: M14 melanoma
[10] = test system: A498 renal
[11] = test system: SF-539 CNS
[12] = test system: HOP-92 NSCLC

CC(NC(=O)C(N)CC(=O)O)NC(=O)N1CCCC1 (stereo not drawn)
TGI [1]: > 100 µM
TGI [2]: > 100 µM
TGI [3]: > 100 µM
TGI [4]: > 100 µM
TGI [5]: > 100 µM
TGI [6]: > 100 µM
TGI [7]: > 100 µM
TGI [8]: > 100 µM
TGI [9]: > 100 µM
TGI [10]: > 100 µM
TGI [11]: > 100 µM
TGI [12]: > 100 µM

Cn1cnc([N+](=O)[O-])c1Sc1nc(N)nc2c1ncn2Cc1ccccc1
TGI [1]: 41.9 µM
TGI [2]: 36.9 µM
TGI [3]: 44.9 µM
TGI [4]: 60.2 µM
TGI [5]: 36.3 µM
TGI [6]: > 100 µM
TGI [7]: > 100 µM
TGI [8]: 40.9 µM
TGI [9]: 69 µM
TGI [10]: 68.3 µM
TGI [12]: 35.9 µM

CCCCCCCCCCCCP(=O)(O)OCC(N)C(=O)O (stereo not drawn)
TGI [1]: > 100 µM
TGI [2]: > 100 µM
TGI [3]: 55.4 µM
TGI [4]: > 100 µM
TGI [5]: 36.9 µM
TGI [6]: > 100 µM
TGI [7]: 41.4 µM
TGI [8]: > 100 µM
TGI [9]: > 100 µM
TGI [10]: 70.6 µM
TGI [11]: 47.4 µM
TGI [12]: 71.6 µM

COc1c(O)cc(C(=O)O[C@@H]2Cc3c(O)cc(O)cc3O[C@@H]2c2cc(O)c(O)c(O)c2)cc1O
TGI [1]: > 100 µM
TGI [2]: 98.5 µM
TGI [3]: 58.4 µM
TGI [5]: > 100 µM
TGI [6]: > 100 µM
TGI [7]: 46.2 µM
TGI [8]: 86 µM
TGI [9]: > 100 µM
TGI [10]: > 100 µM
TGI [12]: > 100 µM

CC1(C)OC(=S)N(c2ccccc2)C12C=Cc1cc3ccccc3cc1O2 (stereo not drawn)
TGI [1]: > 100 µM
TGI [2]: > 100 µM
TGI [3]: > 100 µM
TGI [4]: > 100 µM
TGI [5]: > 100 µM
TGI [6]: > 100 µM
TGI [7]: > 100 µM
TGI [8]: > 100 µM
TGI [9]: > 100 µM
TGI [10]: > 100 µM
TGI [12]: > 100 µM

COc1cccc(-n2c(N)c(-c3nc4cc(C(F)(F)F)ccc4s3)c3ccc([N+](=O)[O-])cc3c2=O)c1
TGI [1]: > 100 µM
TGI [2]: > 100 µM
TGI [3]: > 100 µM
TGI [4]: > 100 µM
TGI [5]: > 100 µM
TGI [7]: > 100 µM
TGI [8]: > 100 µM
TGI [9]: > 100 µM
TGI [10]: > 100 µM
TGI [12]: > 100 µM

CCNc1ncnc2n[nH]nc12
TGI [1]: > 100 µM
TGI [2]: > 100 µM
TGI [3]: > 100 µM
TGI [4]: > 100 µM
TGI [5]: > 100 µM
TGI [6]: > 100 µM
TGI [7]: > 100 µM
TGI [8]: > 100 µM
TGI [9]: > 100 µM
TGI [10]: > 100 µM
TGI [11]: > 100 µM
TGI [12]: > 100 µM

O=C1O[C@H]2[C@@H]3OC(=O)c4cc(O)c(O)c(O)c4-c4c(cc(O)c(O)c4O)C(=O)OC[C@H]2O[C@@H](OC(=O)c2cc(O)c(O)c(O)c2)[C@@H]3OC(=O)c2cc(O)c(O)c3c2[C@@H]2C1=CC(=O)C(O)(O)C2(O)O3 (stereo partly drawn)
TGI [2]: > 100 µM
TGI [3]: 34.6 µM
TGI [4]: > 100 µM
TGI [5]: > 100 µM
TGI [6]: > 100 µM
TGI [7]: > 100 µM
TGI [8]: 90.7 µM
TGI [9]: > 100 µM
TGI [10]: > 100 µM
TGI [12]: > 100 µM

CC(=O)Nc1ccc(-c2nc3ccccc3s2)cc1O
TGI [1]: > 100 µM
TGI [2]: > 100 µM
TGI [3]: > 100 µM
TGI [4]: 45.9 µM
TGI [5]: > 100 µM
TGI [6]: 57.7 µM
TGI [7]: > 100 µM
TGI [8]: > 100 µM
TGI [9]: > 100 µM
TGI [10]: > 100 µM
TGI [12]: > 100 µM

CCOP(C)(=O)C(Nc1ccc(F)cc1)c1ccc(F)cc1 (stereo not drawn)
TGI [1]: > 100 µM
TGI [2]: > 100 µM
TGI [3]: > 100 µM
TGI [4]: > 100 µM
TGI [5]: > 100 µM
TGI [6]: > 100 µM
TGI [7]: > 100 µM
TGI [8]: > 100 µM
TGI [9]: > 100 µM
TGI [10]: > 100 µM
TGI [11]: > 100 µM
TGI [12]: > 100 µM

CC(C)=CCC[C@H](C)[C@H]1CC[C@@H](C)c2cc(O)c(C)cc21
TGI [1]: 32.8 µM
TGI [2]: 33 µM
TGI [3]: 32.1 µM
TGI [4]: 33.3 µM
TGI [5]: 31.3 µM
TGI [6]: 31.4 µM
TGI [7]: 32.2 µM
TGI [8]: 36.8 µM
TGI [9]: 33.9 µM
TGI [10]: 30.7 µM
TGI [11]: 33.8 µM
TGI [12]: 32.2 µM

Cc1cc(-c2nc3cc(F)c(F)cc3s2)ccc1N
TGI [2]: > 100 µM
TGI [3]: > 100 µM
TGI [5]: > 100 µM
TGI [7]: > 82.9 µM
TGI [8]: > 100 µM
TGI [9]: > 100 µM
TGI [10]: > 100 µM
TGI [12]: > 100 µM

O=C1NN(c2ccccc2)C(=O)C2C3c4ccccc4C(c4ccccc43)C12 (stereo not drawn)
TGI [1]: > 100 µM
TGI [2]: > 100 µM
TGI [3]: > 100 µM
TGI [4]: > 100 µM
TGI [5]: > 100 µM
TGI [6]: > 100 µM
TGI [7]: > 100 µM
TGI [8]: > 100 µM
TGI [9]: > 100 µM
TGI [10]: > 100 µM
TGI [11]: > 100 µM
TGI [12]: > 100 µM

Cc1cc(C#N)c(Nc2c(C)cccc2[N+](=O)[O-])s1
TGI [2]: > 100 µM
TGI [3]: > 100 µM
TGI [4]: > 100 µM
TGI [5]: 54.4 µM
TGI [7]: > 100 µM
TGI [8]: > 100 µM
TGI [9]: > 100 µM
TGI [10]: > 100 µM
TGI [11]: > 100 µM
TGI [12]: 68.3 µM

CC1(C)CC[C@]2(C(=O)O)CC[C@]3(C)C(=CC[C@@H]4[C@@]5(C)CC[C@H](OC6OC(CO)C(O)C(O)C6OC6OC(CO)C(O)C(O)C6O)C(C)(C)[C@@H]5CC[C@]43C)[C@@H]2C1 (stereo partly drawn)
TGI [2]: 53.7 µM
TGI [3]: 34.8 µM
TGI [4]: 34.7 µM
TGI [5]: 31.2 µM
TGI [6]: 34.6 µM
TGI [7]: 36 µM
TGI [8]: 44.8 µM
TGI [9]: 31.2 µM
TGI [10]: 34 µM
TGI [12]: 31.7 µM

O=C1OC(c2ccccc2)N/C1=C\c1ccc2c(c1)OCO2 (stereo not drawn)
TGI [1]: > 100 µM
TGI [2]: > 100 µM
TGI [3]: > 100 µM
TGI [4]: > 100 µM
TGI [5]: > 100 µM
TGI [6]: > 100 µM
TGI [7]: > 100 µM
TGI [8]: > 100 µM
TGI [9]: > 100 µM
TGI [11]: > 31.6 µM
TGI [12]: > 100 µM

C[C@@H]1OC(=O)/C(=C\N(C)C)[C@H]2CC(=O)N(CCc3cn(S(=O)(=O)C(F)(F)F)c4ccccc34)C[C@H]12
TGI [1]: > 100 µM
TGI [2]: > 100 µM
TGI [3]: > 100 µM
TGI [4]: > 100 µM
TGI [5]: > 100 µM
TGI [6]: > 100 µM
TGI [7]: > 100 µM
TGI [8]: > 100 µM
TGI [9]: > 100 µM
TGI [10]: > 100 µM
TGI [11]: > 100 µM
TGI [12]: > 100 µM

CCCCOC(=O)C1CN2C(=NC1(C(F)(F)F)C(F)(F)F)Sc1ccccc12 (stereo not drawn)
TGI [1]: > 100 µM
TGI [2]: > 100 µM
TGI [3]: > 100 µM
TGI [4]: > 100 µM
TGI [5]: 42.4 µM
TGI [6]: > 100 µM
TGI [7]: > 100 µM
TGI [8]: > 100 µM
TGI [9]: > 100 µM
TGI [10]: > 100 µM
TGI [11]: > 100 µM
TGI [12]: > 100 µM
